Reference: the NIST ThermoML archive (doi:10.1016/j.jct.2016.09.030)

Tests used:
[1] = xn = mol fraction of the nth substance listed; conditions: 100 kPa, Liquid, x2 = 0; for viscosity: Concentric cylinders viscometry; for mass density: Vibrating tube method
[2] = refractive index (Na D-line) (dimensionless); xn = mol fraction of the nth substance listed; conditions: 100 kPa, Liquid, Standard Abbe refractometry, x2 = 0
[3] = 100 kPa, Liquid; for viscosity: Concentric cylinders viscometry; for mass density: Vibrating tube method
[4] = refractive index (Na D-line) (dimensionless); conditions: 100 kPa, Liquid, Standard Abbe refractometry

CC(C)CO [2-methyl-1-propanol] + CCCCCCCC(=O)OCC
Conditions	mass density, [1] [kg/m3]	refractive index, [2]	viscosity, [1] [mPa·s]
288.15 K	805.88	1.3978	4.829
293.15 K	802.03	1.3958	4.052
298.15 K	798.16	1.3937	3.431
303.15 K	794.25	1.3916	2.923
308.15 K	790.31	1.3895	2.505
313.15 K	786.31	1.3874	2.161
318.15 K	782.26	1.3853	1.875
323.15 K	778.14	1.383	1.652

CC(C)CO [2-methyl-1-propanol] + CCOC(=O)CCC(=O)OCC
Conditions	mass density, [1] [kg/m3]	refractive index, [2]	viscosity, [1] [mPa·s]
288.15 K	805.88	1.3978	4.829
293.15 K	802.03	1.3958	4.052
298.15 K	798.16	1.3937	3.431
303.15 K	794.25	1.3916	2.923
308.15 K	790.31	1.3895	2.505
313.15 K	786.31	1.3874	2.161
318.15 K	782.26	1.3853	1.875
323.15 K	778.14	1.383	1.652

CC(C)CCO [3-methylbutan-1-ol] + CCCCCCCC(=O)OCC
Conditions	mass density, [1] [kg/m3]	refractive index, [2]	viscosity, [1] [mPa·s]
288.15 K	812.29	1.4087	5.057
293.15 K	808.58	1.4067	4.287
298.15 K	804.84	1.4047	3.671
303.15 K	801.09	1.4026	3.155
308.15 K	797.31	1.4005	2.73
313.15 K	793.51	1.3985	2.375
318.15 K	789.67	1.3964	2.076
323.15 K	785.79	1.3943	1.841

CC(C)CCO [3-methylbutan-1-ol] + CCOC(=O)CCC(=O)OCC
Conditions	mass density, [1] [kg/m3]	refractive index, [2]	viscosity, [1] [mPa·s]
288.15 K	812.29	1.4087	5.057
293.15 K	808.58	1.4067	4.287
298.15 K	804.84	1.4047	3.671
303.15 K	801.09	1.4026	3.155
308.15 K	797.31	1.4005	2.73
313.15 K	793.51	1.3985	2.375
318.15 K	789.67	1.3964	2.076
323.15 K	785.79	1.3943	1.841

CCCCCCCC(=O)OCC [ethyl octanoate]
Conditions	mass density, [3] [kg/m3]	refractive index, [4]	viscosity, [3] [mPa·s]
288.15 K	870.88	1.4199	1.686
293.15 K	866.58	1.4177	1.537
298.15 K	862.28	1.4155	1.41
303.15 K	857.98	1.4132	1.298
308.15 K	853.68	1.411	1.2
313.15 K	849.37	1.4088	1.118
318.15 K	845.06	1.4066	1.035
323.15 K	840.74	1.4044	0.9708
